Where only a bound is given, the exact number is not on record here.

Among the targets are D(1A) dopamine receptor (Homo sapiens, UniProt P21728); Melanocortin receptor 4 (Homo sapiens, UniProt P32245); Glucagon receptor (Homo sapiens, UniProt P47871).
Assay [1] deals with Neurotensin receptor type 1 (Homo sapiens, UniProt P30989).
In assay [2] the target is T1, Endothelin receptor type B (Homo sapiens, UniProt P24530).
T1 sequence (P24530 whole entry): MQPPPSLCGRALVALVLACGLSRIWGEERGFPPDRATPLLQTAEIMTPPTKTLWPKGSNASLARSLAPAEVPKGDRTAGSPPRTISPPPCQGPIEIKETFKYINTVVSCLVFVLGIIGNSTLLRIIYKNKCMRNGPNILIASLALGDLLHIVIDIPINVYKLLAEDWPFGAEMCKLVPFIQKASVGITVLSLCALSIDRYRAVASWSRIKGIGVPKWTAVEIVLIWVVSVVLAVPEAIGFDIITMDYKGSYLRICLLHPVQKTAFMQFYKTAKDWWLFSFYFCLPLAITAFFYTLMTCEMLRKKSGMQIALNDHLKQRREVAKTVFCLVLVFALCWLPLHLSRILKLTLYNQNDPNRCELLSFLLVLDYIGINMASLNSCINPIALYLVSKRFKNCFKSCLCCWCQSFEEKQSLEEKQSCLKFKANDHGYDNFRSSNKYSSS

In assay [3] the target is Beta-3 adrenergic receptor (Homo sapiens, UniProt P13945).
Beta-3 adrenergic receptor, sequence (P13945 whole entry): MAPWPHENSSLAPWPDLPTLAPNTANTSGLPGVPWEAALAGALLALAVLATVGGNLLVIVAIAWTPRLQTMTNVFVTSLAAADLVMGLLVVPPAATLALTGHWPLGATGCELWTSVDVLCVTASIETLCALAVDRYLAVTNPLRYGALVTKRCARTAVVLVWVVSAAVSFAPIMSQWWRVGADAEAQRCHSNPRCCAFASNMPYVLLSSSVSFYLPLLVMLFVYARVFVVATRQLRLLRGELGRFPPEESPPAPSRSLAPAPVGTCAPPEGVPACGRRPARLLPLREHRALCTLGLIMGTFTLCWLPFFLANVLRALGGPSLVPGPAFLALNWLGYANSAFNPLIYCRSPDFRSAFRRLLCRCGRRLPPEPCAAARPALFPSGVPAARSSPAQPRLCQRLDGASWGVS
Assay [4] deals with T2, Gastric inhibitory polypeptide receptor (Homo sapiens, UniProt P48546).
T2 sequence (P48546 whole entry): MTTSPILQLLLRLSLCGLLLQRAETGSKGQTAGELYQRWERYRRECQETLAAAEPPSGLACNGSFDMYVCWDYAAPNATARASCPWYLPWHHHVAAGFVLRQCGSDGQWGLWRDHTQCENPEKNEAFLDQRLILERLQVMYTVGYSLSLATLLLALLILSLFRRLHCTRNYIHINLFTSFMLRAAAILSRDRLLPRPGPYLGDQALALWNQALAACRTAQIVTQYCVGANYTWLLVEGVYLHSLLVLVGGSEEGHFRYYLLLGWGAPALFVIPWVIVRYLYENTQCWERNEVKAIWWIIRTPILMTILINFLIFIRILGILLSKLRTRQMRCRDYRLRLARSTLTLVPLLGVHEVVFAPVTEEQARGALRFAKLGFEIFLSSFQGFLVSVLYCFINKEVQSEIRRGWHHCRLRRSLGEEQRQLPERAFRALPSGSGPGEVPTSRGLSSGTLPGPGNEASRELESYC

A further assay concerns the target T3, Progesterone receptor (Homo sapiens, UniProt P06401).
T3 sequence (P06401 whole entry): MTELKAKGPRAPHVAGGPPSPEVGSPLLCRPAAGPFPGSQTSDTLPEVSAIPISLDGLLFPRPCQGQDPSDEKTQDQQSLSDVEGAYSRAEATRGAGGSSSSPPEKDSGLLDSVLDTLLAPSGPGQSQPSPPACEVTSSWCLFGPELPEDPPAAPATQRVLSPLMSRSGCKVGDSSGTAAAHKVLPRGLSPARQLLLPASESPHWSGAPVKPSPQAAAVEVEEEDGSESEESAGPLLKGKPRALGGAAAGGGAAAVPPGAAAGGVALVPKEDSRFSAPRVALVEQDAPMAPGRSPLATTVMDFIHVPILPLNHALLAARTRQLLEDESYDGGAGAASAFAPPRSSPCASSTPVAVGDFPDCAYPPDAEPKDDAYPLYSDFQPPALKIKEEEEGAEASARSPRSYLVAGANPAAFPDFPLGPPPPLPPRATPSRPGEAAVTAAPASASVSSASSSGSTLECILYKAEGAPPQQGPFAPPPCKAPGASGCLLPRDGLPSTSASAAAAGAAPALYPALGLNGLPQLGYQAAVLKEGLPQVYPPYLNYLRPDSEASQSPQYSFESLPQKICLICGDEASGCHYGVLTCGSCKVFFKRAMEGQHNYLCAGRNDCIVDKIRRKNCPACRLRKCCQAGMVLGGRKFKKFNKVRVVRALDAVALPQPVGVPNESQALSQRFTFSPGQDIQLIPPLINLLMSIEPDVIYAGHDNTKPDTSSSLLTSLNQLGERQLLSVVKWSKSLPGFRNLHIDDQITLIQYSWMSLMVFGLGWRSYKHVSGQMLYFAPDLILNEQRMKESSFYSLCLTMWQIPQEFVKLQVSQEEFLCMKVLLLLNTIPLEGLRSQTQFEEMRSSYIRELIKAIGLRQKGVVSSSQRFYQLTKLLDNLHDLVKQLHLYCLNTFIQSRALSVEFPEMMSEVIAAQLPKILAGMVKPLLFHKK

Assay [5] addresses Gamma-aminobutyric acid receptor subunit alpha-1/alpha-2/beta-2/gamma-2 (Homo sapiens, UniProt P14867+P18507+P47869+P47870). It is filed as functional, cell-based.
The target of assay [6] is Sodium-dependent serotonin transporter (Homo sapiens, UniProt P31645).
Sodium-dependent serotonin transporter, sequence (P31645 whole entry): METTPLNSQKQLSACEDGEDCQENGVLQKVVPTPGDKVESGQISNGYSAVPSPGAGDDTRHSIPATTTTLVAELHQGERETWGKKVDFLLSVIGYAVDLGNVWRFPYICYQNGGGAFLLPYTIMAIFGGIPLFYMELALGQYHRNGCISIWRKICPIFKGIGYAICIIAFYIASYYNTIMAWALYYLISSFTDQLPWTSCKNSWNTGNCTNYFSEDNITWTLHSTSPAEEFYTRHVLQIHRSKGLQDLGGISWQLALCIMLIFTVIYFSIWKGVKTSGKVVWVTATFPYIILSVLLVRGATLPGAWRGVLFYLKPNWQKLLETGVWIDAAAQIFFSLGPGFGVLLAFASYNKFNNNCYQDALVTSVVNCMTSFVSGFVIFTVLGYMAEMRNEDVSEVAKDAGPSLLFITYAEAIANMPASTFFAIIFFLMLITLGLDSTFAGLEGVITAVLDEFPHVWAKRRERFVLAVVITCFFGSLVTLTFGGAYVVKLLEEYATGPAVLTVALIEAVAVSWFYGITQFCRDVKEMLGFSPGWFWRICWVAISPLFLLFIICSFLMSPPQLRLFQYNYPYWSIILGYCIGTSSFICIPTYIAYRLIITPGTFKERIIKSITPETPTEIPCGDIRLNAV
For assay [7], the target named is 5-hydroxytryptamine receptor 2A (Homo sapiens, UniProt P28223). Type of assay: functional, cell-based.
Also: assay procedure not described here.

Glucagon receptor, sequence (P47871 whole entry): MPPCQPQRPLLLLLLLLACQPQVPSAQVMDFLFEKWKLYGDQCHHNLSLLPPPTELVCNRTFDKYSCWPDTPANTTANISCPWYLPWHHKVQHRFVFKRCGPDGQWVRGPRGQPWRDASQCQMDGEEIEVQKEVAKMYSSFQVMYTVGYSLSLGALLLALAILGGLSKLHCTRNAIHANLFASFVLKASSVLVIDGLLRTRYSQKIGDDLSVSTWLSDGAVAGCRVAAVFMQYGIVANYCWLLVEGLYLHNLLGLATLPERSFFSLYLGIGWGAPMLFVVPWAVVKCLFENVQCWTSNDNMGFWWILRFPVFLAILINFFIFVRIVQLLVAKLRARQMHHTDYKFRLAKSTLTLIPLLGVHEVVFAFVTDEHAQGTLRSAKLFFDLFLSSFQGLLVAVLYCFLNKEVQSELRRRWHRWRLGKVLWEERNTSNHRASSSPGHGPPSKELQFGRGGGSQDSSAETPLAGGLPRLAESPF
D(1A) dopamine receptor, sequence (P21728 whole entry): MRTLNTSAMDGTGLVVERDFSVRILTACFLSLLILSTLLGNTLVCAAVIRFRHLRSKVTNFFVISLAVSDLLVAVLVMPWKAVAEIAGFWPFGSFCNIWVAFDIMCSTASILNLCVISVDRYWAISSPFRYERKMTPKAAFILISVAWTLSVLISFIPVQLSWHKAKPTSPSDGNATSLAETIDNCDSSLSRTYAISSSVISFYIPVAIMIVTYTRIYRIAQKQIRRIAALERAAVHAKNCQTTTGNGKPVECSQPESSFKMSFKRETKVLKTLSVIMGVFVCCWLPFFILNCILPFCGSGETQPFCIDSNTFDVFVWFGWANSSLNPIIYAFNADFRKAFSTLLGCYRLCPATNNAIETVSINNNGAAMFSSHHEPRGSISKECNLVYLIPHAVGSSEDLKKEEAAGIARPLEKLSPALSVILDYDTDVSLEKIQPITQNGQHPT
Neurotensin receptor type 1, sequence (P30989 whole entry): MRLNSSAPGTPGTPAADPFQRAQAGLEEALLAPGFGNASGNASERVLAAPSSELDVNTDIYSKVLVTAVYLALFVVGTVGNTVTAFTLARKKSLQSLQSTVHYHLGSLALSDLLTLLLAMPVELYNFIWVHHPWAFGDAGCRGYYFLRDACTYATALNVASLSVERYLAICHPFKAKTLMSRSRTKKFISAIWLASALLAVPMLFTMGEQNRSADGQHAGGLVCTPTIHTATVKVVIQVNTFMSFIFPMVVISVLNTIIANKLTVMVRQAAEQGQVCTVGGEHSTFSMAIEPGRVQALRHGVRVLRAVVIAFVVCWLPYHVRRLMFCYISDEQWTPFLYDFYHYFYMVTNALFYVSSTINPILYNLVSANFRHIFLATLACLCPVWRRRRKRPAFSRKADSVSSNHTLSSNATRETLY
Melanocortin receptor 4, sequence (P32245 whole entry): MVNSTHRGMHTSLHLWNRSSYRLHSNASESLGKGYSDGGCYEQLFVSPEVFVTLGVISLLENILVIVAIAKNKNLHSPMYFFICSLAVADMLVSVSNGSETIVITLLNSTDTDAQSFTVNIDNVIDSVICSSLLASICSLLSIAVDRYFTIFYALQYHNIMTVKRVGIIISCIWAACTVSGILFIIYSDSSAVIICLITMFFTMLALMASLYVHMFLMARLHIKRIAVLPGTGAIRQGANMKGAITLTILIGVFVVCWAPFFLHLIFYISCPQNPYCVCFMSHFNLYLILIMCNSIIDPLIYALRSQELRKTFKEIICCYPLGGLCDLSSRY
Gamma-aminobutyric acid receptor subunit alpha-1/alpha-2/beta-2/gamma-2, sequence (P14867 whole entry): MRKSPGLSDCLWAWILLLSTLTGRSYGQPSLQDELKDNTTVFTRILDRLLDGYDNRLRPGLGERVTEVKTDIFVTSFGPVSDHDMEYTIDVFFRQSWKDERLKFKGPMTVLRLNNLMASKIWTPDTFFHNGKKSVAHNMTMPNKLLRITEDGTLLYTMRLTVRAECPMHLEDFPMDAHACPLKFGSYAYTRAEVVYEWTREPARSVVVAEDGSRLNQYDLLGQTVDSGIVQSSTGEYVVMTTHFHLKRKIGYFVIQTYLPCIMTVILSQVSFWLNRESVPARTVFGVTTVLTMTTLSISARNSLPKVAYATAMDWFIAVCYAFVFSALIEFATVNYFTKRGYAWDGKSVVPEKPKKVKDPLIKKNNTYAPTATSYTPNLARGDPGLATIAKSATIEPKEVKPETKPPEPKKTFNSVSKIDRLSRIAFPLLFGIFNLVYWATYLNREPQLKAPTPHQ
Gamma-aminobutyric acid receptor subunit alpha-1/alpha-2/beta-2/gamma-2, sequence (P47870 whole entry): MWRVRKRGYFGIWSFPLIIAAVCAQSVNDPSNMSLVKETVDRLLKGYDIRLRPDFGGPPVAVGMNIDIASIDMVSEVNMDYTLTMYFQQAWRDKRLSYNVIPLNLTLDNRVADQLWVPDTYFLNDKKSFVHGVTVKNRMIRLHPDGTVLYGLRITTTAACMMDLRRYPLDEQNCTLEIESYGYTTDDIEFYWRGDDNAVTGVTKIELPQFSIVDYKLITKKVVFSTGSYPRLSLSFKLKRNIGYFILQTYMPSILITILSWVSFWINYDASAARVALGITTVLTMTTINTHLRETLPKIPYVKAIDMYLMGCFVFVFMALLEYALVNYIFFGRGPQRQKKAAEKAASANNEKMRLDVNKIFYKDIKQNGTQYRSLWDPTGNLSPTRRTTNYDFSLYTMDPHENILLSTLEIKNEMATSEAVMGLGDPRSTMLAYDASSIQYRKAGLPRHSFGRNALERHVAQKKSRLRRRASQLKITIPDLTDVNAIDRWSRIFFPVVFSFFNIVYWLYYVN
Gamma-aminobutyric acid receptor subunit alpha-1/alpha-2/beta-2/gamma-2, sequence (P18507 whole entry): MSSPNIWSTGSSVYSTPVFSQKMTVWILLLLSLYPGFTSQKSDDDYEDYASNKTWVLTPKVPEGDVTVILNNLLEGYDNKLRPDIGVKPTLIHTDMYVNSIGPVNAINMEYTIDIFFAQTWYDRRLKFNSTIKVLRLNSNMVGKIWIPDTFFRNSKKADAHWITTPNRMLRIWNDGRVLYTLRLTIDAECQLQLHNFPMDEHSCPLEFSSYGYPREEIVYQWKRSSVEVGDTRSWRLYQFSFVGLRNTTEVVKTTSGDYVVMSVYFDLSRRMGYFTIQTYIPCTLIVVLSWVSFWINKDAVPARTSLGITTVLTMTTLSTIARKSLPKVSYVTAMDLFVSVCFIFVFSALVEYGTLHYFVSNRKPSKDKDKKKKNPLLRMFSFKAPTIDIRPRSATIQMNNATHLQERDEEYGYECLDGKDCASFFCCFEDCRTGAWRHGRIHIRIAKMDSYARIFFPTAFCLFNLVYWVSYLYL
Gamma-aminobutyric acid receptor subunit alpha-1/alpha-2/beta-2/gamma-2, sequence (P47869 whole entry): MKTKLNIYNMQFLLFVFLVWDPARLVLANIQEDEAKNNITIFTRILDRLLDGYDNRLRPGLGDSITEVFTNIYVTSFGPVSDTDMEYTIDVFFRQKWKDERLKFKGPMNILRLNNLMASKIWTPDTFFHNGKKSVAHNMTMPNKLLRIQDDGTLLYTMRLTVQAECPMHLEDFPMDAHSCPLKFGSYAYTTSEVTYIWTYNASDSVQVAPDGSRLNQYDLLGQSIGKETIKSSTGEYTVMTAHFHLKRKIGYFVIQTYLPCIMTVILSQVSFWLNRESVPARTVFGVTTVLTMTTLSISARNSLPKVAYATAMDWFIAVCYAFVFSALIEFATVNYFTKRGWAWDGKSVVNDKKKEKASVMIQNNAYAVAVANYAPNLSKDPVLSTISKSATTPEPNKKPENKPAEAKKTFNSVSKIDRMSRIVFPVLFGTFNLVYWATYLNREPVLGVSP

Regarding `CC1(C)S[C@@H]2[C@H](NC(=O)[C@H](N)c3ccc(O)cc3)C(=O)N2[C@H]1C(=O)O` [AMOXICILLIN], the AC50 was > 30 µM in [1]; > 30 µM in assay [2]; > 30 µM in [3]; > 30 µM in assay [4]; > 30 µM on Progesterone receptor; > 10 µM at D(1A) dopamine receptor. Further, the AC50 on Melanocortin receptor 4 and at Glucagon receptor was > 30 µM each time.

As for `Clc1cccc(Cl)c1N=C1NCCN1` [CLONIDINE], the AC50 was > 30 µM in assay [1]; > 30 µM in assay [2]; > 30 µM in [3]; > 30 µM in assay [4]; > 30 µM on Progesterone receptor; > 10 µM at D(1A) dopamine receptor. For the same molecule, the AC50 at Melanocortin receptor 4 and on Glucagon receptor was > 30 µM throughout.

Turning to `COC(=O)[C@H](c1ccccc1Cl)N1CCc2sccc2C1` [CLOPIDOGREL], the AC50 in [1] was > 30 µM; in assay [2], > 30 µM; in assay [3], > 30 µM; in assay [4], > 30 µM; on Progesterone receptor, > 30 µM; at D(1A) dopamine receptor, > 10 µM. The AC50 (at Melanocortin receptor 4; at Glucagon receptor; in assay [5]) was > 30 µM throughout.

Take `CN1C[C@H](C(=O)N[C@]2(C)O[C@@]3(O)[C@@H]4CCCN4C(=O)[C@H](Cc4ccccc4)N3C2=O)C[C@@H]2c3cccc4[nH]cc(c34)C[C@H]21` [DIHYDROERGOTAMINE]: the concentration at half-maximal activity (AC50) in assay [1] is > 30 µM; in assay [2], > 30 µM; in assay [3], 0.26 µM; in [4] it was > 30 µM; on Progesterone receptor, > 30 µM; at D(1A) dopamine receptor it was 5.47 µM. In addition, the AC50 at Melanocortin receptor 4 and on Glucagon receptor was > 30 µM throughout.

Consider `Cc1cnc(NC(=O)C2=C(O)c3ccccc3S(=O)(=O)N2C)s1` [MELOXICAM], for which the AC50 in assay [1] is > 30 µM; in assay [2] it was > 30 µM; in [3], > 30 µM; in assay [4], > 30 µM; at Progesterone receptor, > 30 µM; at D(1A) dopamine receptor, > 10 µM. Besides, the AC50 at Melanocortin receptor 4 and at Glucagon receptor was > 30 µM in each case.

As to `COc1ccnc(C[S+]([O-])c2nc3ccc(OC(F)F)cc3[nH]2)c1OC` (configuration not stated) [PANTOPRAZOLE], the AC50 in assay [1] was > 30 µM; in assay [2], > 30 µM; in [3] it was > 30 µM; in [4] it was > 30 µM; at Progesterone receptor, > 30 µM; on D(1A) dopamine receptor, > 10 µM. Moreover, the AC50 on Melanocortin receptor 4 and at Glucagon receptor was > 30 µM each time.

For `CCCN(CCC)CCc1cccc2c1CC(=O)N2` [ROPINIROLE], the concentration at half-maximal activity (AC50) (in [1]; in [2]; in assay [3]; in assay [4]; in assay [6]; at Progesterone receptor) was > 30 µM in each case. The AC50 at D(1A) dopamine receptor is > 10 µM; on Melanocortin receptor 4 it was > 30 µM; on Glucagon receptor, > 30 µM; in assay [7], 12 µM; in [5], > 30 µM.

For the molecule `CCCCNc1ccc(C(=O)OCCN(C)C)cc1` [TETRACAINE], the AC50 in assay [1] was 9.9 µM; in [2], > 30 µM; in assay [3], > 30 µM; in assay [4], > 30 µM; at Progesterone receptor, > 30 µM; at D(1A) dopamine receptor it was > 10 µM. For the same molecule, the AC50 at Melanocortin receptor 4 and on Glucagon receptor was > 30 µM in each case.

`CC1(C)O[C@@H]2[C@@H](CO[C@@]3(COS(N)(=O)=O)OC(C)(C)O[C@@H]23)O1` [TOPIRAMATE]: the half-maximal activity concentration (AC50) in assay [1] is > 30 µM; in assay [2], > 30 µM; in assay [3], > 30 µM; in assay [4] it was > 30 µM; in [6], > 10 µM; on Progesterone receptor, > 30 µM. Further, the AC50 at D(1A) dopamine receptor is > 10 µM; at Melanocortin receptor 4 it was > 30 µM; at Glucagon receptor, > 30 µM.

Source of the values: ChEMBL document CHEMBL5291721, “A preclinical secondary pharmacology resource illuminates target-adverse drug reaction associations of marketed drugs” (Nat Commun, 2023).
